A short description of series [1]: cells. To be noted: Homo sapiens, UCH1, 72 h. Format: functional, cell-based.
Description: Antiproliferative activity against human UCH1 cells measured after 72 hrs by alamar blue assay
Series [2] in a line: cells. The series is classed as functional, cell-based. The conditions noted are these: Homo sapiens, 72 h.
Description: Antiproliferative activity against human UCH12 cells measured after 72 hrs by alamar blue assay
A short description of series [3]: cells. Format: functional, cell-based. The conditions noted are these: Homo sapiens, UCH2, 72 h.
Description: Antiproliferative activity against human UCH2 cells measured after 72 hrs by alamar blue assay
In series [4] the target is T1, Epidermal growth factor receptor (Homo sapiens, UniProt P00533). Kind of series: Inhibition of EGFR in human UCH2 cells assessed as reduction in EGF-induced EGFR phosphorylation at Y1068 residue at 10 uM preincubated for 4 hrs followed by EGF--stimulation and measured after 15 mins by Western blot analysis relative to control. Format: cell-based. Background: In western blotting, separated proteins are transferred to a membrane and probed.

For series [5], the target named is T2, Cyclin-G-associated kinase (Homo sapiens, UniProt O14976).
T2 sequence (O14976 whole entry): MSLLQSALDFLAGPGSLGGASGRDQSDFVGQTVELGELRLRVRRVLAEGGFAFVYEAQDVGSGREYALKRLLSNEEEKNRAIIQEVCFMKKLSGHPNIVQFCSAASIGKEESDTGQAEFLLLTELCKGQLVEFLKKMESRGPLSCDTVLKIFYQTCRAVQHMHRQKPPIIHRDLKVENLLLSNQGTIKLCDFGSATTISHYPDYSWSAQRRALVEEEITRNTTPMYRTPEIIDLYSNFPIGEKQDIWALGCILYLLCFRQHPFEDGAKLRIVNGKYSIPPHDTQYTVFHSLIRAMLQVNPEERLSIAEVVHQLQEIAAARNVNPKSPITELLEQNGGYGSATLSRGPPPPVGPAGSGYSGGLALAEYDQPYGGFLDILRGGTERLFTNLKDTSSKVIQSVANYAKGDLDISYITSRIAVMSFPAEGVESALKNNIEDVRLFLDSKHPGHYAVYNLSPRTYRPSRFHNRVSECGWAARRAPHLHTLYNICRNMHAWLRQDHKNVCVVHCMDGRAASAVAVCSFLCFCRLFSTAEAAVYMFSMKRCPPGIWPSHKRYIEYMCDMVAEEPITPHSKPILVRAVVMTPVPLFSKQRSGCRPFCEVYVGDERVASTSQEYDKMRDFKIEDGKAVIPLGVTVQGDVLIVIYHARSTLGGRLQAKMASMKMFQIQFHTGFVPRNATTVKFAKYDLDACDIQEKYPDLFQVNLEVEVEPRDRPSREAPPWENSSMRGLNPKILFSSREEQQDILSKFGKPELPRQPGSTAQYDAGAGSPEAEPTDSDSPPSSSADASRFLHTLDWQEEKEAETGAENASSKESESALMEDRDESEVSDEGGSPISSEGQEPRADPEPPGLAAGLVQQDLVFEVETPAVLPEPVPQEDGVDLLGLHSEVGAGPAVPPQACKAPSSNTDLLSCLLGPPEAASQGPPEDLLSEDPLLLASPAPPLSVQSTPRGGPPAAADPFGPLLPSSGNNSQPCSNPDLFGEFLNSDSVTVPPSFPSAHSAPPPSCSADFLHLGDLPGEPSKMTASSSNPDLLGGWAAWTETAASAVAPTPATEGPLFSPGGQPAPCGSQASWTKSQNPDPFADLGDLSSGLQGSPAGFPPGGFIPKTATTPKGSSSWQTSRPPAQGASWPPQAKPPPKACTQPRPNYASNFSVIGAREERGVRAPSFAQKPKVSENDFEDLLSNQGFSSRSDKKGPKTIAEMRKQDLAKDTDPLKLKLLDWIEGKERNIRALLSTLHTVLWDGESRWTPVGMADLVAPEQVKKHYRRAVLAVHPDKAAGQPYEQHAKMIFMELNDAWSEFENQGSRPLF
Briefly: Binding affinity to wild-type human partial length GAK (G13 to Y338 residues) expressed in bacterial expression system by Kinomescan method.

Series [6] concerns the target Receptor-interacting serine/threonine-protein kinase 2 (Homo sapiens) (UniProt O43353). Briefly: Binding affinity to RIPK2 in human SUM159 cell lysates by multiplexed inhibitor bead profiling-based LC-MS/MS analysis. The series is classed as subcellular. The conditions noted are these: Lysate.
Series [7] can be described thus: Effect on total EGFR expression in human UCH2 cells at 1 to 10 uM measured after 4 hrs by Western blot analysis. The series is classed as ADME, cell-based.
Series [8] is described as follows: Effect on total EGFR expression in human UCH1 cells at 1 to 10 uM measured after 4 hrs by Western blot analysis. The series is classed as ADME, cell-based.
A short description of series [9]: cells. The series is classed as ADME, cell-based. The conditions noted are these: Homo sapiens, WS1, 72 h.
Description: Cytotoxicity against human WS1 cells measured after 72 hrs by alamar blue assay
Series [10] is described as follows: cells. Format: functional, cell-based. The conditions noted are these: Homo sapiens, 72 h. This is another data set of the same source.
Description: Antiproliferative activity against human UCH7 cells measured after 72 hrs by alamar blue assay
Series [11] in a line: cells. Format: functional, cell-based. The conditions noted are these: Homo sapiens, 72 h. This is another data set of the same source.
Description: Antiproliferative activity against human CH22 cells measured after 72 hrs by alamar blue assay
Series [12] concerns the target T1, Epidermal growth factor receptor.
Description: Binding affinity to wild-type human partial length EGFR (R669 to V1011 residues) expressed in bacterial expression system by Kinomescan method
Series [13] has the same target. Kind of series: Inhibition of EGFR in human UCH1 cells assessed as reduction in EGF-induced EGFR phosphorylation at Y1068 residue at 10 uM preincubated for 4 hrs followed by EGF--stimulation and measured after 15 mins by Western blot analysis relative to control. The series is classed as cell-based.

Active and inactive are the calls of the source. The calls are words filed in the database; no cut-off is given here. Bounds are passed on as bounds.

T1 sequence (P00533 whole entry): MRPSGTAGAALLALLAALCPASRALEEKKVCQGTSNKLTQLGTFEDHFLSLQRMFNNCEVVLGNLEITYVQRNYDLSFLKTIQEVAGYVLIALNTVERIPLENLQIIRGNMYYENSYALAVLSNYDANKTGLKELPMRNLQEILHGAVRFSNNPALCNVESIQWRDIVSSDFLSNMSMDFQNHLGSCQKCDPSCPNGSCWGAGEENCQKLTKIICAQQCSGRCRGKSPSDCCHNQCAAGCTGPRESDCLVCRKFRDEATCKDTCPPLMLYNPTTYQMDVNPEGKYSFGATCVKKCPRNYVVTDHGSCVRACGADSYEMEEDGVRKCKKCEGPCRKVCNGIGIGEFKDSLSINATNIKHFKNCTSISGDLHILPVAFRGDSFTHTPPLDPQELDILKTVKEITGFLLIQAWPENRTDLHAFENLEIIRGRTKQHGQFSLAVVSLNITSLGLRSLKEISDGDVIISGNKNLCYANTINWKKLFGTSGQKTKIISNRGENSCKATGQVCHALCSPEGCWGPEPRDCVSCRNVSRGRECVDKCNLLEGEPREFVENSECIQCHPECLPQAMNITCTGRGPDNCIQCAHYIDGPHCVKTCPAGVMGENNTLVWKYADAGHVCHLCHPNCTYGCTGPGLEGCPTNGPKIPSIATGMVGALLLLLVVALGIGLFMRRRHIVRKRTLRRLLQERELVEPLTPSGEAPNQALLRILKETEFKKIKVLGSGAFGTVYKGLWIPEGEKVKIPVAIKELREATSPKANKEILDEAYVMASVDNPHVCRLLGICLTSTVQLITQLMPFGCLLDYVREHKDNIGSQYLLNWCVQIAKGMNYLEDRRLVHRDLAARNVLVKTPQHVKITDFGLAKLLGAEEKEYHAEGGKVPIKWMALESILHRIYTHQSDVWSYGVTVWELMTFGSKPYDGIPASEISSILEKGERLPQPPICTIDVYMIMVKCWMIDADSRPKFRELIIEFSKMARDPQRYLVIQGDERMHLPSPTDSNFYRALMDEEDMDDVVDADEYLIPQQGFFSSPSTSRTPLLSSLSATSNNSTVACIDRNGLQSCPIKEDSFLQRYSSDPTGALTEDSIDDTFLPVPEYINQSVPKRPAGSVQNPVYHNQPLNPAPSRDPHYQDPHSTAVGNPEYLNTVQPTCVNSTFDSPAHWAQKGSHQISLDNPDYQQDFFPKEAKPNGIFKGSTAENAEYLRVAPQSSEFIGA
Sequence of Receptor-interacting serine/threonine-protein kinase 2 (Homo sapiens) (O43353 whole entry): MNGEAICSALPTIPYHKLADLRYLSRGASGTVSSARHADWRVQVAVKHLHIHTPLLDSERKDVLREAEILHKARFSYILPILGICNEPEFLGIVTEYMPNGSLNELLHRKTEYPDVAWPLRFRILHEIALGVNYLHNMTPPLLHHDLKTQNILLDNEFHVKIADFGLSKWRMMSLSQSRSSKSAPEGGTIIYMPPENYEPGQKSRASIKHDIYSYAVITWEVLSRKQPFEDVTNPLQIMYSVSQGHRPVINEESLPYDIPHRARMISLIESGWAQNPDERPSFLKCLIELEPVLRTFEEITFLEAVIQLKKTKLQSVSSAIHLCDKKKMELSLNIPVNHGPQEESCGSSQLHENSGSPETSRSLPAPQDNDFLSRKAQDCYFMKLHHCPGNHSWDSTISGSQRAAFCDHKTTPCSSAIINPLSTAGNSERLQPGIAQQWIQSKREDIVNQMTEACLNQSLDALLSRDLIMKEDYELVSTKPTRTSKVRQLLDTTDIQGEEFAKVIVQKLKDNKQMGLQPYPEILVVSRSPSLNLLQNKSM

Consider `C#Cc1cccc(Nc2ccnc3cc(OC)c(OC)cc23)c1`, for which the IC50 was 2.1 µM in the series “cells [1]”; 30 µM in the series “cells [2]”; greater than 50 µM in “cells [3]”; 7.7 µM in “cells [9]”; 20 µM in the series “cells [10]”; 13 µM in “cells [11]”. In addition, the inhibition in series [4] is 71.3%; in [13] it was 60.8%. In addition, the figures for the equilibrium dissociation constant (Kd) in series [5] and in series [12] were 0.0076 µM and 0.00027 µM, respectively. The result in [6] was Active. Besides, the Activity result in [7] and in series [8] was “Non-Toxic” throughout.

As a reminder, the IC50 is the concentration needed to halve the response being measured. High values mean weaker potency in that assay, low ones greater potency in that assay. Usually inhibition stands for how much of the control response was suppressed. For orientation: Kd means the concentration at which binding is half-saturated.

Source of the values: ChEMBL document CHEMBL4393671, “Design of a Cyclin G Associated Kinase (GAK)/Epidermal Growth Factor Receptor (EGFR) Inhibitor Set to Interrogate the Relationship of EGFR and GAK in Chordoma” (J Med Chem, 2019).
